Data reported in ChEMBL document CHEMBL4422639, “Novel 2, 8-bit derivatives of quinolines attenuate Pseudomonas aeruginosa virulence and biofilm formation” (Bioorg Med Chem Lett, 2019).
Activity calls are given as the source filed them. No cut-off for these calls is given here.

Columns and labels:
Pseudomonas aeruginosa [1] = assay: Antibacterial activity against Pseudomonas aeruginosa PAO1 by standard optical density assay; format: functional, organism-based
[2] = test system: Pseudomonas aeruginosa PAO1; assay: Inhibition of quorum sensing protein iqs in Pseudomonas aeruginosa PAO1 in phosphate limited medium assessed as reduction in biofilm formation at 10 uM after 18 hrs by crystal violet staining-based assay
[3] = molecular target: 3-(3-hydroxydecanoyloxy)decanoate synthase (Pseudomonas aeruginosa (strain ATCC 15692 / PAO1 / 1C / PRS 101 / LMG12228)) (UniProt Q51559); assay: Inhibition of rhlA in Pseudomonas aeruginosa PAO1 assessed as decrease in rhamnolipid production at 10 uM after 16 hrs by standard optical density assay
[4] = test system: Pseudomonas aeruginosa PAO1; assay: Inhibition of PQS in Pseudomonas aeruginosa PAO1 assessed as decrease in pyocyanin production at 10 uM after 16 hrs by standard optical density assay
[5] = molecular target: Elastase (Pseudomonas aeruginosa (strain ATCC 15692 / PAO1 / 1C / PRS 101 / LMG12228)) (UniProt P14756); assay: Inhibition of lasB in Pseudomonas aeruginosa PAO1 containing lasB-lacZ translational reporter fusion at 20 uM after 16 hrs by LacZ reporter gene assay
Pseudomonas aeruginosa [6] = assay: Antibiofilm activity against Pseudomonas aeruginosa PAO1 at 10 uM after 18 hrs by crystal violet staining-based assay; format: functional, organism-based
[7] = molecular target: T1, Anthranilate--CoA ligase (Pseudomonas aeruginosa (strain ATCC 15692 / DSM 22644 / CIP 104116 /JCM 14847 / LMG 12228 / 1C / PRS 101 / PAO1)) (UniProt Q9I4X3); assay: Inhibition of pqsA in Pseudomonas aeruginosa PAO1 containing […] translational reporter fusion at 20 uM after 16 hrs by LacZ reporter gene assay
T1 sequence (whole entry): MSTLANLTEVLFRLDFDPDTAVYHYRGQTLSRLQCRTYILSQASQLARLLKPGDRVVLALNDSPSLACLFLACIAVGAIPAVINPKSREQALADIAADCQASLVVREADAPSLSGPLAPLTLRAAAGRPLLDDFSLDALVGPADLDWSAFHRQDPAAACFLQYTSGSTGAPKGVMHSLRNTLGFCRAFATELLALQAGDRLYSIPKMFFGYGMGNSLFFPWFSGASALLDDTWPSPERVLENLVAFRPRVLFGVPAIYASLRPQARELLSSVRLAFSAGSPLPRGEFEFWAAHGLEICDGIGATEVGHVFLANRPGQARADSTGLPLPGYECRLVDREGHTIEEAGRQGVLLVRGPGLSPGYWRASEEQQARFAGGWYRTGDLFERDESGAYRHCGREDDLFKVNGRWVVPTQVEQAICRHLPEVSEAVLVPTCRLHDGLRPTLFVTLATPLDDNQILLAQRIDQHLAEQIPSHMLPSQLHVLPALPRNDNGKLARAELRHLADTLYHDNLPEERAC

[8] = molecular target: 3-(3-hydroxydecanoyloxy)decanoate synthase (Pseudomonas aeruginosa (strain ATCC 15692 / PAO1 / 1C / PRS 101 / LMG12228)) (UniProt Q51559); assay: Inhibition of rhlA in Pseudomonas aeruginosa PAO1 containing […] translational reporter fusion at 20 uM after 16 hrs by LacZ reporter gene assay

Chain of Elastase (Pseudomonas aeruginosa (strain ATCC 15692 / PAO1 / 1C / PRS 101 / LMG12228)) (P14756 198-498 limits assumed): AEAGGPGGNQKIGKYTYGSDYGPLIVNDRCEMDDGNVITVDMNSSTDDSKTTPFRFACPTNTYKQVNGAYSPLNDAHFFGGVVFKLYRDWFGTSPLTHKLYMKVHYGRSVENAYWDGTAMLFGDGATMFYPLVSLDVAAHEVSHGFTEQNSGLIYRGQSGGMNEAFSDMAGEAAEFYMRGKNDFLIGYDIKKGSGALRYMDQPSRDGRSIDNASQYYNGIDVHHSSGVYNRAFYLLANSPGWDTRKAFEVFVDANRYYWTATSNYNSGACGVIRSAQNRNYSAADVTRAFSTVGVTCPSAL

Row | SMILES | MIC (Pseudomonas aeruginosa [1]) | Activity (Pseudomonas aeruginosa [6]) | other results
1 | COc1ccc(C(=O)Oc2cccc3ccc(-c4cccc(C(F)(F)F)c4)nc23)cc1 | > 256 µM | Active | inhibition [2]: inactive; inhibition [3]: Active; inhibition [4]: inactive; inhibition [5]: inactive; inhibition [7]: inactive; inhibition [8]: Active
2 | CCCCC(=O)Oc1cccc2ccc(-c3ccc(C(F)(F)F)cc3)nc12 | > 256 µM | Active | 
3 | O=C(Oc1cccc2ccc(-c3ccc(C(F)(F)F)cc3)nc12)c1ccco1 | > 256 µM | Active | 
4 | CCCCCCC(=O)Oc1cccc2ccc(-c3ccc(F)cc3)nc12 | > 256 µM |  | 
5 | O=C(Oc1cccc2ccc(-c3cccc(C(F)(F)F)c3)nc12)c1ccco1 | > 256 µM | Active | 
6 | O=C(Oc1cccc2ccc(-c3ccc(C(F)(F)F)cc3)nc12)c1ccc(Cl)cc1 | > 256 µM | Active | 
7 | O=C(Oc1cccc2ccc(-c3cccc(C(F)(F)F)c3)nc12)c1ccccc1 | > 256 µM | Active | 
8 | CCCCCCC(=O)Oc1cccc2ccc(-c3cc(C(F)(F)F)cc(C(F)(F)F)c3)nc12 | > 256 µM |  | 
9 | CCCCCC(=O)Oc1cccc2ccc(-c3cccc(C(F)(F)F)c3)nc12 | > 256 µM | Active | 
10 | Cc1ccc(C(=O)Oc2cccc3ccc(-c4cccc(C(F)(F)F)c4)nc23)cc1 | > 256 µM | Active | 
11 | CCCCCCC(=O)Oc1cccc2ccc(-c3cccc(C(F)(F)F)c3)nc12 | > 256 µM | Active | 
12 | O=C(Oc1cccc2ccc(-c3cccc(C(F)(F)F)c3)nc12)c1ccc(Cl)cc1 | > 256 µM | Active | 
13 | CCC(=O)Oc1cccc2ccc(-c3ccc(C(F)(F)F)cc3)nc12 | > 256 µM | Active | 
14 | CCCCCCC(=O)Oc1cccc2ccc(-c3ccc(C(F)(F)F)cc3)nc12 | > 256 µM | Active | inhibition [2]: inactive; inhibition [3]: Active; inhibition [4]: inactive; inhibition [5]: inactive; inhibition [7]: inactive; inhibition [8]: Active
15 | CCCCCC(=O)Oc1cccc2ccc(-c3ccc(C(F)(F)F)cc3)nc12 | > 256 µM | Active | 
16 | O=C(Oc1cccc2ccc(-c3ccc(C(F)(F)F)cc3)nc12)c1ccccc1 | > 256 µM | Active | 
17 | CC(=O)Oc1cccc2ccc(-c3ccc(C(F)(F)F)cc3)nc12 | > 256 µM | Active | 
18 | CCCC(=O)Oc1cccc2ccc(-c3ccc(C(F)(F)F)cc3)nc12 | > 256 µM | Active | 
19 | Cc1ccc(C(=O)Oc2cccc3ccc(-c4ccc(C(F)(F)F)cc4)nc23)cc1 | > 256 µM | Active | 
20 | COc1ccc(C(=O)Oc2cccc3ccc(-c4ccc(C(F)(F)F)cc4)nc23)cc1 | > 256 µM | Active | 
21 | Oc1cccc2ccc(-c3ccc(C(F)(F)F)cc3)nc12 | > 256 µM | Active | 
